According to ChEMBL document CHEMBL5727231, “Farnesoid X receptor agonists and uses thereof” (2019):

These compounds were tested against T1, Bile acid receptor (Homo sapiens, UniProt Q96RI1) (assay: In Vitro FXR Assay (TK): SeedingCV-1 cells were seeded at a density of 2,000,000 cells in a T175 flask with DMEM+10% charcoal double-stripped FBS and incubated at 37° C. in 5% CO2 for 18 h (O/N).TransfectionAfter 18 h of incubation, the medium in the T175 flask was changed with fresh DMEM+10% charcoal super-stripped serum. In a polypropylene tube, 2500 μL OptiMEM (Life Technologies, Cat #31985-062) was combined with expression plasmids for hFXR, hRXR, TK-ECRE-luc and pCMX-YFP. The tube was then briefly vortexed and incubated at room temperature for 5 minutes. Transfection reagent (X-tremeGENE HP from Roche, Cat #06 366 236 001) was added to the OptiMEM/plasmid mixture vortexed and incubated at room temperature for 20 minutes. Following incubation, the transfection reagent/DNA mixture complex was added to cells in the T175 flask and the cells were incubated at 37° C. in 5% CO2 for 18 h (O/N).Test CompoundsCompounds were serially diluted in DMSO and added to transfected CV-1 cells. The cells were then incubated for 18 hrs. The next day cells were lysed and examined for luminescence.).
T1 sequence (Q96RI1 whole entry): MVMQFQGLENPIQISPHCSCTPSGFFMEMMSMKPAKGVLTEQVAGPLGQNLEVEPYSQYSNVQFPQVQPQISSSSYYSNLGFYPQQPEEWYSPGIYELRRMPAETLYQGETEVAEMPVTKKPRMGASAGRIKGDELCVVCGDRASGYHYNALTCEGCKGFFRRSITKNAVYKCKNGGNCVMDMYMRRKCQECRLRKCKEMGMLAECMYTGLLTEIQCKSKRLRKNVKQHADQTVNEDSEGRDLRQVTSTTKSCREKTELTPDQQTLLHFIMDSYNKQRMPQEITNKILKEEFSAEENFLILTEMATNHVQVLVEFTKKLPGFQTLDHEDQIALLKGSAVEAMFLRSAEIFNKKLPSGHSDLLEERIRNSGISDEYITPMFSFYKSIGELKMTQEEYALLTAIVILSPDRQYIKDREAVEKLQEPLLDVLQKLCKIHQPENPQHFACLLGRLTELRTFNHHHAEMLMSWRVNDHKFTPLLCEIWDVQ

EC50, < 1 µM:
COC(=O)c1ccc2c(N(C[C@H]3CC[C@H](c4ccc(OC)c(C)c4)CC3)C(=O)C3CCCCC3)nccc2c1
COC(=O)c1ccc2c(N(C[C@H]3CC[C@H](c4cccc(OC)c4)CC3)C(=O)CC(C)(C)C)nccc2c1
COC(=O)c1ccc2c(N(C[C@H]3CC[C@H](c4ccc(C)cc4)CC3)C(=O)CC(C)(C)C)nccc2c1
